# In patent publication US12458630B2, “Combination therapy for cancer” (The Regents of the University of California, priority 2020, dated 2025):
# “Also recorded” adds a separate entry of the source.
# What was measured:
# MIA PaCa-2 cells [1] = test: Cell viability assay (CCK-8); assay type: cell-based, human; details: for cell viability in NHE1-silenced cells: NHE1 KD MIA PaCa-2 cells
# Protocol: Cell viability assay. Cell viability was determined with Cell Counting Kit-8 assay (CCK-8 assay kit, Glpbio). Cells were plated in 96-well plates at a density of 3000 cells (MIA PaCa-2) or 1500 cells (KC6141) per well and incubated overnight prior to treatment. EIPA (10 μM), MRT68921 (600 nM) or erlotinib (2 μM, Sigma) were added to the wells for 72 and 96 hrs. Next, 10 μL of CCK-8 was added to each well. The optical density was read at 450 nm using a microplate reader (FilterMax F5, Molecular Devices, USA) at day 0, 1, 2, 3, and 4. For glutamine-deprivation assays, cells in 96-well plates were rinsed briefly in PBS and incubated in the 0.2 mM glutamine. Glutamine-free DMEM medium was supplemented with 0.2 mM glutamine in the presence of 10% dialysed FBS and 25 mM HEPES. For some conditions, the medium was supplemented with a final concentration of 2% BSA (Fraction V, fatty-acid-, nuclease and protease-free, Calbiochem). For all experiments, media were replaced every 24 hrs. Viable cell counts were obtained using CCK-8 assay described as above.
# In some embodiments, cells were plated in 96-well plates coated with or without ECM at a density of 3000 cells (MIA PaCa-2, 1444, 1305, COLO 357/FG) or 1500 cells (KC6141) per well and incubated overnight prior to treatment. EIPA (10.5 μM), IPI549 (600 nM), MBQ-167 (500 nM), MRT68921 (600 nM) or erlotinib (2 μM, Sigma), ML385 (10 μM, Sigma), HCQ (10 μM or 80 μM) or their combinations were added to the wells for 24, 72 or 96 hrs. Next, 10 μL of CCK-8 was added to each well. The optical density was read at 450 nm using a microplate reader (FilterMax F5, Molecular Devices, USA) at day 0, 1, 2, 3, and 4. For glutamine-deprivation assays, cells in 96-well plates were rinsed briefly in PBS and incubated in the 0.2 mM glutamine. Glutamine-free DMEM medium was supplemented with 0.2 mM glutamine in the presence of 10% dialyzed FBS and 25 mM HEPES. For glucose-deprivation assays, cells in 96-well plates were rinsed briefly in PBS and incubated in the 0.5 mM glucose. Glucose-free DMEM medium was supplemented with 0.5 mM glucose in the presence of 10% dialyzed FBS and 25 mM HEPES. For some conditions, the medium was supplemented with a final concentration of 2% BSA (Fraction V, fatty-acid-, nuclease and protease-free, Calbiochem). For all experiments, media were replaced every 24 hrs. Viable cell counts were obtained using CCK-8 assay described as above.
# MIA PaCa-2 cells [2] = test: TMR-DEX macropinosome uptake assay; assay type: cell-based, human
# Protocol: Cell imaging. Immunostaining was performed as described^44. Cells were cultured on coverslips and fixed in 4% PFA for 10 min at room temperature. After washing twice in PBS, cells were incubated in PBS containing 10% FBS to block nonspecific sites of antibody adsorption. The cells were then incubated with the appropriate primary antibodies (diluted 1:100) and secondary antibodies (diluted 1:500) in PBS containing 10% FBS with or without 0.1% saponin. For cell macropinosome visualization, 24 hrs after seeding, the cells were serum starved for 18 hrs. Macropinosomes were marked using a high-molecular-mass (70 KD) TMR-Dextran (Invitrogen)-uptake assay, wherein TMR-DEX was added to serum-free medium at a final concentration of 1 mg/ml for 30 min at 37° C. At the end of the incubation period, the cells were rinsed five times in cold PBS and immediately fixed in 4% PFA. For tissue macropinosome visualization^45, fresh pancreata were cut into pieces with an approximate 5-mm cuboidal shape. A tissue section was placed in a 24-well plate and injected 150 μL of 10 mg/ml TMR-DEX solution directly into the tissue piece. Another 250 μL of diluted TMR-DEX solution were added to the well to immerse the tissue section. The plate was incubated in the dark for 15 min at room temperature. Then the tissue section was rinsed twice in PBS before embedding in O.C.T. compound in a prelabeled cryomold. Specimens were frozen on dry ice and stored at −80° C. for further processing. Immunostaining was performed as described above. Images were captured using a TCS SPE Leica confocal microscope (Leica, Germany).
# In some embodiments, Immunostaining was performed as described (Su et al., 2017). Cells were cultured on coverslips and fixed in 4% PFA for 10 min at room temperature or methanol for 10 min at −20° C. After washing twice in PBS, cells were incubated in PBS containing 10% FBS to block nonspecific sites of antibody adsorption. The cells were then incubated with the appropriate primary antibodies (diluted 1:100) and secondary antibodies (diluted 1:500) in PBS containing 10% FBS with or without 0.1% saponin. For cell macropinosome visualization, 24 hrs after seeding, the cells were serum starved for 18 hrs. Macropinosomes were marked using a high-molecular-mass (70 KDa) TMR-DEX (Invitrogen)-uptake assay, wherein TMR-DEX was added to serum-free medium at a final concentration of 1 mg/ml for 30 min at 37° C. At the end of the incubation period, the cells were rinsed five times in cold PBS and immediately fixed in 4% PFA. For tissue macropinosome visualization (Lee et al., 2019), fresh pancreata were cut into pieces with an approximate 5-mm cuboidal shape. Tissue fragments were placed in a 24-well plate and injected with 150 μL of 10 mg/ml TMR-DEX solution. Another 250 μL of diluted TMR-DEX solution were added to the well to immerse the tissue fragment. The plate was incubated in the dark for 15 min at room temperature. Then the tissue fragments were rinsed twice in PBS before embedding in O.C.T. compound in a prelabeled cryomold. Specimens were frozen on dry ice and stored at −80° C. for further processing. Immunostaining was performed as described above. Images were captured using a TCS SPE Leica confocal microscope (Leica, Germany).
# Quantification and statistics. To quantify the number of LC3 puncta, a total of 30 cells were recorded and analyzed using the LAS X measurement program on the TCS SPE Leica. Macropinosomes were quantified by using the ‘Analyze Particles’ feature in ImageJ (National Institutes of Health). Macropinocytic uptake index was computed by determining the total macropinosome area in relation to the total cell area for each field and then by determining the average across all the fields (at least 6 fields). These measurements were done on randomly-selected fields of view. Two-tailed unpaired Student's t test was performed for statistical analysis using GraphPad Prism software. […]
# KC6141 cells = test: BrdU incorporation (immunofluorescence); assay type: cell-based, mouse; details: 0.5 mM glucose, 24 hrs; for BrdU incorporation (cell proliferation): KC6141 cells on ECM
Structure (SMILES),"sensitivity to single agent (cell viability) (MIA PaCa-2 cells [1]; ATG7^Δ or IKKα-deficient MIA PaCa-2 cells, 3 days)","sensitivity of IKKα- or ATG7-deficient cells to EIPA (CCK-8) (MIA PaCa-2 cells [1]; IKKα^Δ / ATG7^Δ vs WT MIA PaCa-2 cells (TP53 mutated), complete medium)",cell viability in NHE1-silenced cells (MIA PaCa-2 cells [1]; 3 days),"proliferation restored by albumin supplementation (MIA PaCa-2 cells [1]; WT and IKKα KO MIA PaCa-2 cells, 0.2 mM glutamine with albumin, 3 days)","cell viability (total viable cells relative to day 0) (MIA PaCa-2 cells [1]; WT and IKKα^Δ MIA PaCa-2 cells, complete medium, EIPA 10.5 μM)","enhanced proliferation caused by loss of IKKα or ATG7 (MIA PaCa-2 cells [1]; WT, IKKα KO, ATG7 KO MIA PaCa-2 cells, complete medium, EIPA 10 μM, days 0-4)","macropinosome formation (TMR-DEX labeling) (MIA PaCa-2 cells [2]; parental and IKKα-KO (IKKα^Δ) MIA PaCa-2 cells, 75 μM EIPA)",BrdU incorporation (cell proliferation) (KC6141 cells),BrdU incorporation in NRF2 ablated cells (KC6141 cells; Nrf2 KD KC6141 cells on ECM),relative macropinocytic uptake (macropinosomes) (MIA PaCa-2 cells [2]; MIA PaCa-2 cells +/- MRT68921),BrdU incorporation (cell proliferation) (KC6141 cells; listed as MRT)
"CCN(c1nc(N)c(C(=O)N=C(N)N)nc1Cl)C(C)C [EIPA, 5-(N-ethyl-N-isopropyl) amiloride]",very sensitive,much more sensitive; also recorded: highly sensitive,EIPA-insensitive,completely abrogated,suppression of cell viability,abrogated,blocks macropinosome formation; also recorded: inhibited; also recorded: suppressed,reduced; also recorded: suppressed cell proliferation in all conditions,ineffective,,
CN1CCc2cc(Nc3ncc(C4CC4)c(NCCCNC(=O)C4CCC4)n3)ccc2C1 [MRT68921],,,severely compromised cell viability,,,,,further elevated,,more macropinosomes; also recorded: increased macropinosomes; also recorded: enhanced,"enhanced cell proliferation in WT, but not in Nrf2 KD KC6141"
